# What was measured:
# Experiment in all cases: Cell proliferation assay (Alamar Blue)
# Format in all cases: cell-based
# AN3CA = AN3CA tumor cell line, 6 days culture
# Method in brief: (§1)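 Antiproliferative IC50 determined in a 6-day assay with AlamarBlue fluorescence read-out (Ex 560, Em 590 nm). Top test concentration was 100 or 30 μM according to solubility.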
# Alexander cells = Alexander cells liver cancer cell line, 6 days culture
# Method in brief: as §1
# CCRF-CEM = CCRF-CEM tumor cell line, 6 days culture
# Method in brief: as §1
# DLD1 = DLD1 tumor cell line, 6 days culture
# Method in brief: as §1
# DU145 = DU145 tumor cell line, 6 days culture
# Method in brief: as §1
# HCCLM3 = HCCLM3 tumor cell line, 6 days culture
# Method in brief: as §1
# HEPG2 = HEPG2 liver cancer cell line, 6 days culture
# Method in brief: as §1
# HLE = HLE liver cancer cell line, 6 days culture
# Method in brief: as §1
# HT55 = HT55 tumor cell line, 6 days culture
# Method in brief: as §1
# HUH1 = HUH1 liver cancer cell line, 6 days culture
# Method in brief: as §1
# HUH7 = HUH7 liver cancer cell line, 6 days culture
# Method in brief: as §1
# Hep3B2.1-7 = Hep3B2.1-7 liver cancer cell line, 6 days culture
# Method in brief: as §1
# HuTu80 = HuTu80 tumor cell line, 6 days culture
# Method in brief: as §1
# JHH7 = JHH7 liver cancer cell line, 6 days culture
# Method in brief: as §1
# K562 = K562 tumor cell line, 6 days culture
# Method in brief: as §1
# KASUMI-1 = KASUMI-1 (leukemia cells), 6 days culture
# Method in brief: as §1
# LC-2-ad = LC-2-ad tumor cell line, 6 days culture
# Method in brief: as §1
# MDA-MB-231 = MDA-MB-231 tumor cell line, 6 days culture
# Method in brief: as §1
# MFM-223 = MFM-223 tumor cell line, 6 days culture
# Method in brief: as §1
# NCI-H1648 = NCI-H1648 tumor cell line, 6 days culture
# Method in brief: as §1
# NCI-H2170 = NCI-H2170 tumor cell line, 6 days culture
# Method in brief: as §1
# NCI-H526 = NCI-H526 tumor cell line, 6 days culture
# Method in brief: as §1
# NCI-H661 = NCI-H661 tumor cell line, 6 days culture
# Method in brief: as §1
# SNU739 = SNU739 liver cancer cell line, 6 days culture
# Method in brief: as §1
# SNU886 = SNU886 liver cancer cell line, 6 days culture
# Method in brief: as §1
# SW620 = SW620 tumor cell line, 6 days culture
# Method in brief: as §1
# T.T = T.T tumor cell line, 6 days culture
# Method in brief: as §1
structure (smiles),measurement,setting,value
Cc1ccc(F)c(NC(=O)Nc2ccc(-c3cccc4[nH]nc(NC(=O)CCCCCCCCCCCNC(=O)C[C@H](N)C(=O)N[C@@H](CCC(=O)N[C@@H](CCC(=O)N[C@@H](CCC(=O)N[C@@H](CCC(=O)N[C@@H](CCC(=O)N[C@@H](CCC(=O)N[C@@H](CCC(=O)N[C@@H](CCC(=O)N[C@@H](CCC(=O)O)C(=O)O)C(=O)O)C(=O)O)C(=O)O)C(=O)O)C(=O)O)C(=O)O)C(=O)O)C(=O)O)c34)cc2)c1 [Compound 9],IC50,AN3CA,10.3 µM
same,IC50,Alexander cells,> 100 µM
same,IC50,CCRF-CEM,> 100 µM
same,IC50,DLD1,> 100 µM
same,IC50,DU145,> 100 µM
same,IC50,HCCLM3,> 100 µM
same,IC50,HEPG2,33.6 µM
same,IC50,HLE,> 100 µM
same,IC50,HT55,> 100 µM
same,IC50,HUH1,> 100 µM
same,IC50,HUH7,88.5 µM
same,IC50,Hep3B2.1-7,> 100 µM
same,IC50,HuTu80,90.4 µM
same,IC50,JHH7,> 100 µM
same,IC50,K562,> 100 µM
same,IC50,KASUMI-1,0.87 µM
same,IC50,LC-2-ad,> 100 µM
same,IC50,MDA-MB-231,> 100 µM
same,IC50,MFM-223,> 100 µM
same,IC50,NCI-H1648,> 100 µM
same,IC50,NCI-H2170,> 100 µM
same,IC50,NCI-H526,> 100 µM
same,IC50,NCI-H661,> 100 µM
same,IC50,SNU739,> 100 µM
same,IC50,SNU886,> 100 µM
same,IC50,SW620,> 100 µM
same,IC50,T.T,> 100 µM
Cc1ccc(F)c(NC(=O)Nc2ccc(-c3cccc4[nH]nc(NC(=O)CCCCCCCCCCCNC(=O)C[C@H](N)C(=O)N[C@@H](CCC(=O)N[C@@H](CCC(=O)N[C@@H](CCC(=O)N[C@@H](CCC(=O)O)C(=O)O)C(=O)O)C(=O)O)C(=O)O)c34)cc2)c1 [Compound 8],IC50,"AN3CA; Homo sapiens, AN3-CA, 144 h",5.68 µM
same,IC50,Alexander cells; 144 h,> 100 µM
same,IC50,"CCRF-CEM; Homo sapiens, 144 h",> 100 µM
same,IC50,"DLD1; Homo sapiens, DLD-1, 144 h",> 100 µM
same,IC50,"DU145; Homo sapiens, DU-145, 144 h",> 100 µM
same,IC50,"HCCLM3; Homo sapiens, 144 h",> 100 µM
same,IC50,"HEPG2; Homo sapiens, 144 h",11.5 µM
same,IC50,"HLE; Homo sapiens, 144 h",> 100 µM
same,IC50,"HT55; Homo sapiens, 144 h",> 100 µM
same,IC50,"HUH1; Homo sapiens, HuH-1, 144 h",> 100 µM
same,IC50,"HUH7; Homo sapiens, Huh-7, 144 h",65.4 µM
same,IC50,Hep3B2.1-7; 144 h,80.2 µM
same,IC50,"HuTu80; Homo sapiens, 144 h",50.6 µM
same,IC50,JHH7; 144 h,94.9 µM
same,IC50,"K562; Homo sapiens, 144 h",> 100 µM
same,IC50,"KASUMI-1; Homo sapiens, 144 h",0.39 µM
same,IC50,"LC-2-ad; Homo sapiens, 144 h",82.4 µM
same,IC50,"MDA-MB-231; Homo sapiens, 144 h",> 100 µM
same,IC50,"MFM-223; Homo sapiens, 144 h",> 100 µM
same,IC50,"NCI-H1648; Homo sapiens, 144 h",> 100 µM
same,IC50,"NCI-H2170; Homo sapiens, 144 h",75.3 µM
same,IC50,"NCI-H526; Homo sapiens, 144 h",> 100 µM
same,IC50,"NCI-H661; Homo sapiens, 144 h",> 100 µM
same,IC50,"SNU739; SNU-739, 144 h",> 100 µM
same,IC50,"SNU886; SNU-886, 144 h",> 100 µM
same,IC50,"SW620; Homo sapiens, SW-620, 144 h",65.3 µM
same,IC50,"T.T; Homo sapiens, TT, 144 h",> 100 µM

# Source: patent publication US11712434B2, “Compound having anti-cancer effect, and preparation method therefor and use thereof” (3D MEDICINES (BEIJING) CO., LTD., priority 2016, dated 2023)
